What was measured:
[1] = NO release from polymer films/coatings containing NO donor in PBS buffer at 37° C. by chemiluminescence; assay type: physicochemical
Procedure: Thermal stability of diazeniumdiolates. […] Kinetics. […] Use in Hydrophobic Systems.
In the absence of the KTpClPB, NO release decreases dramatically after approximately 1 hour. […] The decrease in NO release observed is believed to result from an increase in the pH within the organic polymer film, which decreases the decomposition rate of lipophilic diazeniumdiolates. As water diffuses into the film initiating NO release, secondary amine sites result. The secondary amine sites have a higher pKa than water and therefore deprotonate water to form hydroxide ions. The basic microdomain environment that results within the polymer, in turn, slows further decomposition of the remaining diazeniumdiolates that would generate NO. This retardation may occur as a result of the organic ammonium hydroxide microphases within the polymer, which in turn serves to stabilize the remaining diazeniumdiolates.
FT-IR were collected on Perken Elmer Spectrum VX. […] Elemental analyses were performed. Reagents. […] NO was purchased from Matheson Gases. […] General NO Addition Procedure. […] The products were finally collected and dried under vacuum. Molar Extinction Coefficients. […] The maximum wavelength and absorbance were collected. […] Kinetics Studies. […] The NO released was measured using chemiluminescence. […] Preparation of Polymer Films Containing Diazeniumdiolates. […] The membranes were covered and allowed to cure overnight. […] Polymerization to Form Boc-protected Diamine Copolymer.
General Procedure for Deprotection to Form Diamine Copolymer (c). 35 mg of the copolymer (b) was dissolved in 2 mL of dichloromethane and then 200 μL of TFA (trifluoroacetic acid) was added dropwise. The solution was stirred at room temperature for about 3 hours. The reaction mixture was diluted with 20 mL of dichloromethane, and the organic phase was then washed with sodium bicarbonate, water, and brine, and was dried with sodium sulfate. The solvent was evaporated and the resulting copolymer was dried under vacuum overnight. ^1H-NMR was performed to confirm the structure and actual composition of the copolymer. General Procedure for NO Loading to Form Polymer-Based NO Donor (d). 20 mg of the deprotected copolymer (c) was dissolved in 3 mL of dry THF and placed in a high pressure reactor with a stirring bar, and flushed with argon for about 10 minutes. 100% excess of sodium methoxide (with respect to free amine sites) was added and the reactor was closed. The reactor was purged with argon again for several times (e.g. ten times) over a 1 hour period and was charged with NO at 80 psi. The reaction mixture was stirred for 72 hours at room temperature. After the reaction was complete, the copolymer was precipitated with dry hexane under argon. The remaining solvent was removed using a vacuum, and the diazeniumdiolated copolymers (d) were examined by UV-Vis spectrum as well as NOA. This resulting copolymer was stored in sealed vials charged with argon in a freezer. Preparation of Polymer Films Containing Polymer-Based No Donor. Polymer membranes containing the polymer-based NO donor was prepared by dissolving 60.8 mg poly(vinyl chloride) (PVC), 30.4 mg dioctyl sebacate (DOS), and 9.1 mg poly(lactide-co-glycolide) (50:50) (PLGA 50:50) in 1.5 mL of freshly distilled tetrahydrofuran. […] A trilayer film configuration is employed to fabricate films. […] Four hours later the polymer cocktail was cast on top of the PVC layer. After another 4 hours, the PVC solution was cast again as a finish layer. The membrane was covered and allowed to cure overnight. Polymer films containing no additives were prepared in a similar manner. […] NO Release Measurements by Chemiluminescence. All NO measurements were performed using a Sievers Nitric Oxide Analyzer (NOA), model 280. The instrument was calibrated before each experiment using an internal two-point calibration (zero gas and 45 PPM). The flow rate was set to 200 mL/min with a cell pressure of 5.4 torr and an oxygen pressure of 6.0 psig. […]

[2] = Storage stability of polymer films containing diazeniumdiolate (NO release after storage); assay type: physicochemical; details: 4 weeks
Procedure: To determine if polymer films containing such diazeniumdiolates would also remain stable, NO release measurements were conducted for films containing 29 wt. % PVC, 60 wt. % plasticizer (DOS), 4.4 wt. % compound 2d and 6.6 wt. % KTpClPB under two storage conditions: a) room temperature under nitrogen and b) ambient conditions. Initial NO release measurements were performed for freshly prepared films. Additional NO release measurements were conducted for both storage conditions after 1, 2 and 4 weeks. […] The loss of NO may be due in part to the slow decomposition of the diazeniumdiolate within the polymer matrix owing to permeation of water vapor into the polymer film. Although this loss represents a significant percentage of the total NO releasing capability of the film, such films still yield NO surface fluxes higher than that of stimulated endothelial cells (i.e., 4·10^−10 mol·cm^−2·min^−1). However, films stored under a dry nitrogen environment at room temperature maintained 99% of their NO release after a 4-week period.

theoretical total NO release achieved after storage ([2]; film 29 wt. % PVC, 60 wt. % DOS, 4.4 wt. % donor, 6.6 wt. % KTpClPB, ambient conditions): 62%
NO release maintained after storage ([2]; same film, dry nitrogen environment at room temperature): 99%
t1/2 ("apparent" t1/2 and t1/2) (buffer, pH 7.4): 4.95 ± 0.567 min
SMILES: CCCCNCCCCCCN(CCCC)/[N+]([O-])=N/O [Compound 2d, (Z)-1-{N-Butyl-N-[6-(N-butylammoniohexyl)amino]}-diazen-1-ium-1,2-diolate]
effect of doubling the NO donor amount ([1]; 4 wt. % vs 8 wt. % in 1:2 PVC/DOS film with KTpClPB): nearly doubles the surface flux and the NO release
effect of plasticizer on NO release ([1]; PVC/NPOE matrix compared with PVC/DOS matrix, with KTpClPB): higher initial NO release
effect of increasing polymer to plasticizer ratio on NO release ([1]; PVC:DOS increased from 1:2 to 2:1, films with KTpClPB): the NO release rate decreases and the release is prolonged
period of steady NO release ([1]; SR tubes coated with plasticized SR, 4.2 wt. % donor, 8.1 wt. % KTpClPB, PBS buffer at 37° C.): 40 h
total estimated NO released from the surface of the tube ([1]; SR tubes coated with plasticized SR, 4.2 wt. % donor, 8.1 wt. % KTpClPB, after 40 h in PBS buffer at 37° C.): 15%
time after which NO release decreases dramatically ([1]; plasticized PVC film, absence of KTpClPB): approximately 1 hour
effect of adding KTpClPB on NO release ([1]; plasticized PVC films, 1:1 mol ratio KTpClPB:donor, PBS pH 7.4, 37° C.): increases, prolongs, and helps to control the release of NO
total NO release profile from film without additive ([1]; ~5 wt. % in PVC film plasticized with DOS (1:2), PBS buffer, 37° C., no KTpClPB): never achieving theoretical total NO release
NO surface flux of films after ambient storage (vs stimulated endothelial cells) ([2]; films stored under ambient conditions): > 4·10^−10 mol·cm^−2·min^−1
k (first order decomposition, PBS buffer, pH 7.4, 37° C., n > 3): 0.0025 ± 0.0002 s⁻¹

Source: patent publication US20110117164A1, “Use of Additive Sites to Control Nitric Oxide Release from Nitric Oxide Donors Contained within Polymers” (priority 2004, published 2011)
